Read-outs that look alike come from different tables or passages of the source.
Tests used:
human NOX4 = molecular target: T1, human NOX4 (Homo sapiens, UniProt Q9NPH5); assay: Lucigenin chemiluminescence assay, drosophila membranes expressing hNOX4; type: biochemical; settings: average of three repeats
T1 construct: made in house; host or cells: transgenic Drosophila (Da-GAL4 driven UAS-hNOX4, dDuox RNAi background); membranes from homogenized flies
T1 sequence (Q9NPH5 1-578): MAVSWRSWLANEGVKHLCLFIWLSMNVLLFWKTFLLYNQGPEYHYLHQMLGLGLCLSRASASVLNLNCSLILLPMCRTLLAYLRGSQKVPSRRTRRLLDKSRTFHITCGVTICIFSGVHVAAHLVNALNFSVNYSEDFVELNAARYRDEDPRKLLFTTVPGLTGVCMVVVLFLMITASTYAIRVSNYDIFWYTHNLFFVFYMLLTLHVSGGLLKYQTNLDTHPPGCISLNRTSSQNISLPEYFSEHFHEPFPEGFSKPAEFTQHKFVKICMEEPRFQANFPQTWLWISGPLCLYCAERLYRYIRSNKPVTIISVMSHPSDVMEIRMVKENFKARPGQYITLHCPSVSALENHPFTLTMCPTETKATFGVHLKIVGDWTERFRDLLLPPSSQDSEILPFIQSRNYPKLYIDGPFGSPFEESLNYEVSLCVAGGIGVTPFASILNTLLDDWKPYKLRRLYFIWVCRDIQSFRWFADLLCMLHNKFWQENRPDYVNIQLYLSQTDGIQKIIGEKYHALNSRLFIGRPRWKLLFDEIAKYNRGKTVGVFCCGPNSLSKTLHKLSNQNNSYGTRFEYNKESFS
Procedure: (§1) Human NOX isozymes were provided from transgenic flies expressing human NOX isozymes from the daughterless (Da)-GAL4 promoter. The genotype of each fly line is shown below. • human NOX2:UAS-hNOX2/UAS-dDuox-RNAi; Da-GAL4/+ • human NOX4:UAS-hNOX4/UAS-dDuox-RNAi; Da-GAL4/+
(§2) Transgenic flies were homogenized in PBS containing protease inhibitors (aprotinin, leupeptin) to obtain drosophila membranes of each NOX isozyme. The membranes were incubated with the compounds (100 μM, 10 μM, 1 μM, 0.1 μM, 0.01 μM, 0.001 μM, and 0 μM) for 10 minutes in a shaker. Then, to the membranes, a mixture of 500 μM NADPH (R-nicotinamide adenine dinucleotide 2′-phosphate reduced tetrasodium salt hydrate; Sigma-Aldrich) and 400 μM lucigenin (N,N′-dimethyl-9,9-biacridinium dinitrate; Sigma-Aldrich) in 1× HEPES (4-(2-hydroxyethyl)-1-piperazineethanesulfonic acid) buffer was added. Lucigenin chemiluminescence was detected at 1-minute intervals for 10 minutes using a multimode microplate reader (SpectraMax iD3, Molecular Devices). IC50 values were calculated with Graph-Pad Prism 5 (GraphPad Software).
(§3) The lucigenin chemiluminescence assay was performed with drosophila membranes expressing hNOX1, hNOX2, and hNOX4. The assay was repeated three times and the IC50 values were averaged.

human NOX2 = molecular target: T2, human NOX2 (Homo sapiens, UniProt P04839); assay: Lucigenin chemiluminescence assay, drosophila membranes expressing hNOX2; type: biochemical; settings: average of three repeats
T2 construct: made in house; host or cells: transgenic Drosophila (Da-GAL4 driven UAS-hNOX2, dDuox RNAi background); membranes from homogenized flies
T2 sequence (P04839 2-570 limits assumed): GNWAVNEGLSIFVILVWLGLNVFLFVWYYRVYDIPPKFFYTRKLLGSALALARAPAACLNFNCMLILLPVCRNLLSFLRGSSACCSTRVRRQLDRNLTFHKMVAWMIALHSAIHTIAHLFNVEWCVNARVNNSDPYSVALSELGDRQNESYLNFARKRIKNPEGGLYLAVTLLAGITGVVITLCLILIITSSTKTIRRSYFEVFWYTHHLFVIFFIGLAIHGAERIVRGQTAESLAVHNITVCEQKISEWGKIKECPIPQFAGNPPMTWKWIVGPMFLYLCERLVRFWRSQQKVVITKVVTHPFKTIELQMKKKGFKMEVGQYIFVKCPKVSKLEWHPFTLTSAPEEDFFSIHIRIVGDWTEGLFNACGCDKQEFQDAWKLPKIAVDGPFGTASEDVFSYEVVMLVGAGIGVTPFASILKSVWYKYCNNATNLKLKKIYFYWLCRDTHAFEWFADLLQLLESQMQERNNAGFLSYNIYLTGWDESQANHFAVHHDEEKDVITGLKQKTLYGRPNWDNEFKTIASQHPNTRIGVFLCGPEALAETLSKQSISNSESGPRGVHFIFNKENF
Procedure: as §1, §2, §3

PAMPA-BBB assay = type: in vitro ADME
Procedure: The parallel artificial membrane permeability assay (PAMPA) was performed to determine the brain barrier blood (BBB) permeability. […] For the Blank measurement, the donor buffer was dispensed into a high sensitivity UV plate at 150 μl per well and the UV values were measured (Blank sample). For the initial value measurement, the mixture in the deep well plate was dispensed 150 μl per well into the UV plate and the UV values were measured (initial sample). Next, 200 μl of the test compound mixture was dispensed onto the donor plate of the PAMPA sandwich, and the acceptor plate of the PAMPA sandwich was inverted and the membrane was coated with 5 μl of BBB-lipid solution. Then, 200 μl of acceptor sink buffer was added to each well of the acceptor plate, and the acceptor plate and donor plate were combined and incubated at 25° C. for 4 hours. […] Finally, the permeability (Pe(10^−6 cm/sec)) was analyzed using the PAMPA explore program. The experiment was performed in three replicates. The permeability of the material was analyzed by UV measurement and LC-MS/MS, the specific conditions of which are described below.

[1] = Metabolic stability in human liver microsomes; type: in vitro ADME; settings: human liver microsomes 0.5 mg/ml, 1 μM, 30 minutes, 37° C., NADPH
Procedure: The stability of a drug may be predicted by using liver microsomes to determine the extent to which the drug is metabolized in the liver. […] Thus, a metabolic stability verification experiment was performed on the oxadiazole derivatives according to The present disclosure.
Specifically, sample treatment human liver microsomes (0.5 mg/ml), 0.1 M phosphate buffer (pH 7.4), and test compound at a concentration of 1 μM were added, and the mixture was pre-incubated at 37° C. for 5 minutes, followed by addition of NADPH Regeneration system solution and incubation at 37° C. for 30 minutes. An acetonitrile solution containing an internal standard (chlorpropamide) was then added to terminate the reaction, followed by centrifugation for 5 minutes (14,000 rpm, 4° C.). Then, the supernatant was injected into the LC-MS/MS system to analyze the substrate drug to evaluate the metabolic stability of the two compounds.
The HPLC column was an Acquity UPLC BEH Amide column (2.1×100 mm, 1.7 μm particle size; Waters, Ireland). The mobile phases were distilled water containing 0.1% formic acid (A) and acetonitrile containing 0.1% formic acid (B). Data analysis was performed using Analyst software (version 1.6.3).

U87 = assay: Mouse model xenografted with brain tumor glioblastoma U87; type: in vivo, mice; settings: Example 2 study: Example 2 50 mg/kg 5 times per week, TMZ 5 mg/kg 2 times per week, from 20 days after xenografting; vehicle 42 days
Procedure: To confirm the therapeutic effect on brain tumor glioblastoma, U87 (5×10^4), a human brain tumor cell line, was xenografted into the brains of mice to establish a brain tumor model, followed by oral administration of the drugs.
Different experimental groups were evaluated for each compound.
First, with respect to the compound of Example 1, the experimental groups were divided into Vehicle (n=3) and the compound of Example 1, 50 mg/kg (n=3) and the administered with the drug orally 5 times a week 20 days after U87 xenografting.
With respect to the compound of Example 2, the experimental groups were divided into Vehicle (n=9), TMZ 5 mg/kg (Temozolomide, n=10, 2 times per week), the compound of Example 2, 50 mg/kg (n=8, 5 times per week), and combination (TMZ+the compound of Example 2, n=7), and began receiving the drug 20 days after U87 xenografting.

[2] = 50 μM, incubation 4 hr, pH 7.4, 25° C., U.V, read-out: Permeability Pe

SMILES | IC50 (human NOX4) [nM] | IC50 (human NOX2) [nM] | Papp at 4 h, 50 μM (PAMPA-BBB assay; [2]) [×10⁻⁶ cm/s] | Human (% ) remaining, microsomal stability [1] [%] | Papp at 4 h, 50 μM (PAMPA-BBB assay; pH 7.4) [×10⁻⁶ cm/s] | median survival time (U87) [days]
O=C(Nc1nnc(-c2ccccc2)o1)c1cc(F)cc(C(F)(F)F)c1 [Example 3, 3-fluoro-N-(5-phenyl-1,3,4-oxadiazol-2-yl)-5-(trifluoromethyl)benzamide] | 380 | 240 | – | – | – | –
O=C(Nc1nnc(-c2cccc(Br)c2)o1)c1ccc(F)c(C(F)(F)F)c1 [Example 4, N-(5-(3-bromophenyl)-1,3,4-oxadiazol-2-yl)-4-fluoro-3-(trifluoromethyl)benzamide] | 250 | 210 | – | – | – | –
O=C(Nc1nnc(-c2cccc(C(F)(F)F)c2)o1)c1ccc(F)c(C(F)(F)F)c1 [Example 5, 4-fluoro-3-(trifluoromethyl)-N-(5-(3-(trifluoromethyl)phenyl)-1,3,4-oxadiazol-2-yl)benzamide] | 140 | 180 | – | – | – | –
O=C(Nc1nnc(-c2cccc(Cl)c2)o1)c1ccc(F)c(C(F)(F)F)c1 [Example 6, N-(5-(3-chlorophenyl)-1,3,4-oxadiazol-2-yl)-4-fluoro-3-(trifluoromethyl)benzamide] | 270 | 230 | – | – | – | –
O=C(Nc1nnc(-c2ccccc2)o1)c1ccc(I)c(C(F)(F)F)c1 [Example 7, 4-iodo-N-(5-phenyl-1,3,4-oxadiazol-2-yl)-3-(trifluoromethyl)benzamide] | 120 | 190 | – | – | – | –
O=C(Nc1nnc(-c2cccc(-c3ccsc3)c2)o1)c1ccc(F)c(C(F)(F)F)c1 [Example 8] | 190 | 160 | – | – | – | –
O=C(Nc1nnc(-c2cccc(-c3ccsc3)c2)o1)c1cc(F)cc(C(F)(F)F)c1 [Example 9] | 130 | 150 | – | – | – | –
O=C(Nc1nnc(-c2cccc(-c3ccoc3)c2)o1)c1ccc(F)c(C(F)(F)F)c1 [Example 10] | 160 | 100 | > 0.4 | 94.9 | – | –
O=C(Nc1nnc(-c2cccc(-c3ccoc3)c2)o1)c1cc(F)cc(C(F)(F)F)c1 [Example 11] | 260 | 170 | > 0.4 | – | – | –
O=C(Nc1nnc(-c2cccc(C(F)(F)F)c2)o1)c1cc(F)cc(C(F)(F)F)c1 [Example 12, 3-fluoro-5-(trifluoromethyl)-N-(5-(3-(trifluoromethyl)phenyl)-1,3,4-oxadiazol-2-yl)benzamide] | 120 | 140 | – | 90.0 | – | –
O=C(Nc1nnc(-c2cccc(Br)c2)o1)c1cc(F)cc(C(F)(F)F)c1 [Example 13, N-(5-(3-bromophenyl)-1,3,4-oxadiazol-2-yl)-3-fluoro-5-(trifluoromethyl)benzamide] | 170 | 150 | > 0.4 | 79.0 | – | –
CC(=O)[C@H]1CC[C@H]2[C@@H]3CCC4=CC(=O)CC[C@]4(C)[C@H]3CC[C@]12C [Progesterone, reference compound] | – | – | – | – | > 0.4 | –
CNC(=C[N+](=O)[O-])NCCSCc1ccc(CN(C)C)o1 [Ranitidine, reference compound] | – | – | – | – | < 0.4 | –
Cn1nnc2c(C(N)=O)ncn2c1=O [TMZ, Temozolomide, reference compound] | – | – | – | – | – | 54.5

— US20250051293A1, “NOVEL OXADIAZOLE DERIVATIVE AND USE THEREOF” (CELROS BIOTECH, priority 2021, published 2025)
